pIC50: −log10 of the molar value. Some results are limits rather than exact numbers.

The target of one experiment is KRAS G12D (Homo sapiens, UniProt P01116, G12D). In words: GDP-GTP exchange assay (bodipy-GDP/GppNHp, SOS1), KRAS G12D. The class given is biochemical. To be noted: bodipy-loaded KRAS G12D 2.5 nM, 4 h pre-incubation; value for the most potent isomer quoted for certain compounds; read-out: G12D (KRAS G12D exchange assay IC50). The protocol:
(§1) The inhibitor potency of the exemplified compounds was determined in a fluorescence based guanine nucleotide exchange assay, which measures the exchange of bodipy-GDP (fluorescently labeled GOP) for GppNHp (Non-hydrolyzable GTP analog) to generate the active state of KRAS in the presence of SOS1 (guanine nucleotide exchange factor). Inhibitors were serially diluted in DMSO and a volume of 0.1 μL was transferred to the wells of a black low volume 384-well plate. 5 μL/well volume of bodipy-loaded KRAS G12D diluted to 2.5 nM in assay buffer (25 mM Hepes pH 7.5, 50 mM NaCl, 10 mM MgCl2 and 0.01% Brij-35) was added to the plate and pre-incubated with inhibitor for 4 h at r.t. Appropriate controls (enzyme with no inhibitor or with a G12D inhibitor) were included on the plate. The exchange was initiated by the addition of a 5 μL/well volume containing 1 mM GppNHp and 300 nM SOS1 in assay buffer. The 10 μL/well reaction concentration of the bodipy-loaded KRAS G12D, GppNHp, and SOS1 were 2.5 nM, 500 μM, and 150 nM, respectively. The reaction plates were incubated at r.t. for 2 h, a time estimated for complete GDP-GTP exchange in the absence of inhibitor. For the KRAS G12V mutant, similar guanine nucleotide exchange assays were used with 2.5 nM as final concentration for the bodipy loaded KRAS proteins and 3 h incubation after adding GppNHp-SOS1 mixture. A cyclic peptide described to selectively bind G12D mutant (Sakamoto et al., BBRC 484.3 (2017), 605-611) or internal compounds with confirmed binding were used as positive controls in the assay plates. Fluorescence intensities were measured on a PheraStar plate reader instrument (BMG Labtech) with excitation at 485 nm and emission at 520 nm.
(§2) Either GraphPad prism or Genedata Screener SmartFit was used to analyze the data. The IC50 values were derived by fitting the data to a four parameter logistic equation producing a sigmoidal dose-response curve with a variable Hill coefficient.
(§3) The symbol “†” indicates IC50≤100 nM, “††” indicates IC50>100 nM but ≤1 μM; and “†††” indicates IC50 is >1 μM but ≤5 μM, “††††” indicates IC50 is >5 μM but ≤10 μM. “NA” indicates IC50 not available.

The next experiment addresses KRAS G12V (Homo sapiens, UniProt P01116, G12V). In words: GDP-GTP exchange assay (bodipy-GDP/GppNHp, SOS1), KRAS G12V. The class given is biochemical. Conditions: KRAS G12V mutant; value for the most potent isomer quoted for certain compounds; read-out: G12V (KRAS G12V exchange assay IC50). The procedure: as §1, §2, §3

KRAS G12D, sequence (P01116 1-188 isoform P01116-2 G12D): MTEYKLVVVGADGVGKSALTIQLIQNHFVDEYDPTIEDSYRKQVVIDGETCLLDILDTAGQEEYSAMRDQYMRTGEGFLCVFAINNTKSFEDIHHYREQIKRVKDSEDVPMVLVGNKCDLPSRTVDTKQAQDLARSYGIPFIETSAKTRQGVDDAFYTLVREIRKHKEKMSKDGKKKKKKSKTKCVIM
KRAS G12V, sequence (P01116 1-188 isoform P01116-2 G12V): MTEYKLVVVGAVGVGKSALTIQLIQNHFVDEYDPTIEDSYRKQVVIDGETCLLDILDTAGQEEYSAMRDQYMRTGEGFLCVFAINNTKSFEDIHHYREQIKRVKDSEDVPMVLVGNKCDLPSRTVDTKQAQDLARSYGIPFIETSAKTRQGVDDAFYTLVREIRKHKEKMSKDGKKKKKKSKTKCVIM

As a reminder, the pIC50 is the IC50 on a negative log10 scale, so that one unit is a factor of ten. Regarding `Cc1nc2c(F)c(-c3cccc(Cl)c3Cl)c(CCC#N)cc2c2c1cc([C@H]1C[C@H](OCc3ncco3)CN1C(=O)C1CC1)n2[C@H]1[C@H]2CN[C@@H]1C2` [Example 104], the pIC50 on KRAS G12D was no less than 7.00; at KRAS G12V, 6.00 to 7.00.
Regarding `Cc1nc2c(F)c(-c3cccc(Cl)c3Cl)c(CCC#N)cc2c2c1cc([C@H]1C[C@H](OCc3cnn(C)n3)CN1C(=O)C1CC1)n2[C@H]1[C@H]2CN[C@@H]1C2` [Example 105], the pIC50 on KRAS G12D and on KRAS G12V was no less than 7.00 in each case.
Take `Cc1nc2c(F)c(-c3cccc(Cl)c3Cl)c(CCC#N)cc2c2c1cc([C@H]1C[C@H](OCc3cnnn3C)CN1C(=O)C1CC1)n2[C@H]1[C@H]2CN[C@@H]1C2` [Example 106]: the pIC50 on KRAS G12D and on KRAS G12V was no less than 7.00 each time.
Consider `Cc1nc(CO[C@H]2C[C@H](c3cc4c(C)nc5c(F)c(-c6cccc(Cl)c6Cl)c(CCC#N)cc5c4n3[C@H]3[C@H]4CN[C@@H]3C4)N(C(=O)C3CC3)C2)cs1` [Example 107], for which the negative-log IC50 (pIC50) on KRAS G12D and on KRAS G12V was no less than 7.00 each time.
With `Cc1nc2c(F)c(-c3cccc(Cl)c3Cl)c(CCC#N)cc2c2c1cc([C@H]1C[C@H](OCc3cncn3C)CN1C(=O)C1CC1)n2[C@H]1[C@H]2CN[C@@H]1C2` [Example 108], the negative logarithm of the IC50 (pIC50) at KRAS G12D and at KRAS G12V was no less than 7.00 in each case.
Regarding `Cc1nc2c(F)c(-c3cccc(Cl)c3Cl)c(CCC#N)cc2c2c1cc([C@H]1C[C@H](c3ccccc3)CN1C(=O)C1CC1)n2[C@H]1[C@H]2CN[C@@H]1C2` [Example 109], the pIC50 at KRAS G12D and on KRAS G12V was no less than 7.00 each time.
In the case of `Cc1nc2c(F)c(-c3cccc(Cl)c3Cl)c(CCC#N)cc2c2c1cc([C@H]1C[C@H](OCc3cnsc3)CN1C(=O)C1CC1)n2[C@H]1[C@H]2CN[C@@H]1C2` [Example 110], the pIC50 at KRAS G12D and on KRAS G12V was no less than 7.00 throughout.
With `Cc1nc2c(F)c(-c3cccc(Cl)c3Cl)c(CCC#N)cc2c2c1cc([C@H]1C[C@H](OCc3cocn3)CN1C(=O)C1CC1)n2[C@H]1[C@H]2CN[C@@H]1C2` [Example 112], the pIC50 on KRAS G12D and at KRAS G12V was no less than 7.00 in each case.
Turning to `Cc1cccc(C)c1CO[C@H]1C[C@H](c2cc3c(C)nc4c(F)c(-c5cccc(Cl)c5Cl)c(CCC#N)cc4c3n2[C@H]2[C@H]3CN[C@@H]2C3)N(C(=O)C2CC2)C1` [Example 113], the pIC50 on KRAS G12D and at KRAS G12V was no less than 7.00 each time.
Consider `Cc1nc2c(F)c(-c3cccc(Cl)c3Cl)c(CCC#N)cc2c2c1cc([C@H]1C[C@H](Oc3cccnc3)CN1C(=O)C1CC1)n2[C@H]1[C@H]2CN[C@@H]1C2` [Example 114], for which the pIC50 at KRAS G12D and at KRAS G12V was no less than 7.00 in each case.
Consider `Cc1nc2c(F)c(-c3cccc(Cl)c3Cl)c(CCC#N)cc2c2c1cc([C@H]1C[C@H](OCc3c(F)cccc3F)CN1C(=O)C1CC1)n2[C@H]1[C@H]2CN[C@@H]1C2` [Example 115], for which the pIC50 at KRAS G12D and at KRAS G12V was no less than 7.00 throughout.
Regarding `Cc1nc2c(F)c(-c3cccc(Cl)c3Cl)c(CCC#N)cc2c2c1cc([C@H]1C[C@H](OCc3c(Cl)cccc3Cl)CN1C(=O)C1CC1)n2[C@H]1[C@H]2CN[C@@H]1C2` [Example 116], the pIC50 on KRAS G12D and at KRAS G12V was no less than 7.00 throughout.
With `Cc1nc2c(F)c(-c3cccc(Cl)c3Cl)c(CCC#N)cc2c2c1cc([C@H]1C[C@H](OCc3ccccc3C(F)(F)F)CN1C(=O)C1CC1)n2[C@H]1[C@H]2CN[C@@H]1C2` [Example 117], the pIC50 at KRAS G12D and on KRAS G12V was no less than 7.00 in each case.
As for `Cc1ccc(O[C@H]2C[C@H](c3cc4c(C)nc5c(F)c(-c6cccc(Cl)c6Cl)c(CCC#N)cc5c4n3[C@H]3[C@H]4CN[C@@H]3C4)N(C(=O)C3CC3)C2)cc1` [Example 118], the pIC50 at KRAS G12D and at KRAS G12V was no less than 7.00 throughout.
As to `Cc1nc2c(F)c(-c3cccc(Cl)c3Cl)c(CCC#N)cc2c2c1cc([C@H]1C[C@H](Oc3ccccc3F)CN1C(=O)C1CC1)n2[C@H]1[C@H]2CN[C@@H]1C2` [Example 119], the pIC50 at KRAS G12D and at KRAS G12V was no less than 7.00 each time.
As to `Cc1nc2c(F)c(-c3cccc(Cl)c3Cl)c(CCC#N)cc2c2c1cc([C@H]1C[C@H](Oc3ccc(F)cc3)CN1C(=O)C1CC1)n2[C@H]1[C@H]2CN[C@@H]1C2` [Example 120], the negative-log IC50 (pIC50) at KRAS G12D and on KRAS G12V was no less than 7.00 in each case.
As to `Cc1nc2c(F)c(-c3cccc(Cl)c3Cl)c(CCC#N)cc2c2c1cc([C@H]1C[C@H](Oc3ccc4ccccc4n3)CN1C(=O)C1CC1)n2[C@H]1[C@H]2CN[C@@H]1C2` [Example 121], the pIC50 on KRAS G12D and on KRAS G12V was no less than 7.00 throughout.
For the molecule `Cc1nc2c(F)c(-c3cccc(Cl)c3Cl)c(CCC#N)cc2c2c1cc([C@H]1C[C@H](Oc3cccc(F)c3)CN1C(=O)C1CC1)n2[C@H]1[C@H]2CN[C@@H]1C2` [Example 122], the pIC50 on KRAS G12D and at KRAS G12V was no less than 7.00 in each case.
In the case of `Cc1cc(C)cc(CO[C@H]2C[C@H](c3cc4c(C)nc5c(F)c(-c6cccc(Cl)c6Cl)c(CCC#N)cc5c4n3[C@H]3[C@H]4CN[C@@H]3C4)N(C(=O)C3CC3)C2)c1` [Example 123], the pIC50 at KRAS G12D and on KRAS G12V was no less than 7.00 in each case.
In the case of `Cc1cccc(C(F)(F)F)c1CO[C@H]1C[C@H](c2cc3c(C)nc4c(F)c(-c5cccc(Cl)c5Cl)c(CCC#N)cc4c3n2[C@H]2[C@H]3CN[C@@H]2C3)N(C(=O)C2CC2)C1` [Example 124], the pIC50 is 6.00 to 7.00 on KRAS G12D and no less than 7.00 on KRAS G12V.
Consider `Cc1ccnc(C)c1CO[C@H]1C[C@H](c2cc3c(C)nc4c(F)c(-c5cccc(Cl)c5Cl)c(CCC#N)cc4c3n2[C@H]2[C@H]3CN[C@@H]2C3)N(C(=O)C2CC2)C1` [Example 125], for which the negative logarithm of the IC50 (pIC50) at KRAS G12D and on KRAS G12V was no less than 7.00 throughout.
As to `Cc1nc2c(F)c(-c3cccc(Cl)c3Cl)c(CCC#N)cc2c2c1cc([C@H]1C[C@H](OCc3c(F)cccc3C#N)CN1C(=O)C1CC1)n2[C@H]1[C@H]2CN[C@@H]1C2` [Example 126], the negative logarithm of the IC50 (pIC50) at KRAS G12D and at KRAS G12V was no less than 7.00 each time.
`Cc1nc2c(F)c(-c3cccc(Cl)c3Cl)c(CCC#N)cc2c2c1cc([C@H]1C[C@H](OCc3ccccc3)CN1C(=O)C1(C)CC1)n2[C@H]1[C@H]2CN[C@@H]1C2` [Example 127]: the pIC50 at KRAS G12D and on KRAS G12V was no less than 7.00 throughout.
With `Cc1nc(CO[C@H]2C[C@H](c3cc4c(C)nc5c(F)c(-c6cccc(Cl)c6Cl)c(CCC#N)cc5c4n3[C@H]3[C@H]4CN[C@@H]3C4)N(C(=O)C3(C)CC3)C2)cs1` [Example 128], the negative logarithm of the IC50 (pIC50) on KRAS G12D and at KRAS G12V was no less than 7.00 in each case.
For `Cc1ncccc1O[C@H]1C[C@H](c2cc3c(C)nc4c(F)c(-c5cccc(Cl)c5Cl)c(CCC#N)cc4c3n2[C@H]2[C@H]3CN[C@@H]2C3)N(C(=O)C2CC2)C1` [Example 129], the pIC50 on KRAS G12D and on KRAS G12V was no less than 7.00 each time.
`Cc1ccncc1O[C@H]1C[C@H](c2cc3c(C)nc4c(F)c(-c5cccc(Cl)c5Cl)c(CCC#N)cc4c3n2[C@H]2[C@H]3CN[C@@H]2C3)N(C(=O)C2CC2)C1` [Example 130]: the negative logarithm of the IC50 (pIC50) on KRAS G12D and at KRAS G12V was no less than 7.00 throughout.
Regarding `Cc1nc2c(F)c(-c3cccc(Cl)c3Cl)c(CCC#N)cc2c2c1cc([C@H]1C[C@H](Oc3nccc4ccccc34)CN1C(=O)C1CC1)n2[C@H]1[C@H]2CN[C@@H]1C2` [Example 131], the pIC50 at KRAS G12D and at KRAS G12V was no less than 7.00 in each case.
For the molecule `Cc1nc2cc(O[C@H]3C[C@H](c4cc5c(C)nc6c(F)c(-c7cccc(Cl)c7Cl)c(CCC#N)cc6c5n4[C@H]4[C@H]5CN[C@@H]4C5)N(C(=O)C4CC4)C3)ccc2s1` [Example 132], the pIC50 at KRAS G12D and at KRAS G12V was no less than 7.00 each time.
Consider `Cc1nc2c(F)c(-c3cccc(Cl)c3Cl)c(CCC#N)cc2c2c1cc([C@H]1C[C@H](Oc3cccc4c3cnn4C)CN1C(=O)C1CC1)n2[C@H]1[C@H]2CN[C@@H]1C2` [Example 133], for which the pIC50 at KRAS G12D and at KRAS G12V was no less than 7.00 each time.
In the case of `Cc1cccc(O[C@H]2C[C@H](c3cc4c(C)nc5c(F)c(-c6cccc(Cl)c6Cl)c(CCC#N)cc5c4n3[C@H]3C4CNC3C4)N(C(=O)C3CC3)C2)c1` (some centres unmarked) [Example 134], the pIC50 at KRAS G12D and at KRAS G12V was no less than 7.00 in each case.
`Cc1nc2c(F)c(-c3cccc(Cl)c3Cl)c(CCC#N)cc2c2c1cc([C@H]1C[C@H](Oc3cnn(C)c3)CN1C(=O)C1CC1)n2[C@H]1[C@H]2CN[C@@H]1C2` [Example 135]: the pIC50 at KRAS G12D and on KRAS G12V was no less than 7.00 each time.
